# Reference: a melting point compilation (Tetko et al.; mined from patent text by program, amines drawn as free bases though some values may be those of a salt)
# Counter-ions that a name gives are not always drawn. Residues, ends and D or L forms follow the SMILES beside them. *: point of attachment. Tfa = O=C(C(F)(F)F)*; NHPh = c1ccc(N*)cc1
row,Compound,melting point
1,Cc1cc(C(F)(F)F)ccc1NC(=O)C(C)(C)C,111 to 114 °C
2,Nc1c(Cl)c(Br)cc2[nH]c(=O)c(=O)[nH]c12,> 350 °C
3,Nc1nc2c(c(Nc3cccc(F)c3)n1)-c1ccccc1C2,199 to 200 °C
4,CC(COc1ccc(C(N)=O)c(O)c1)NCC(O)c1ccccc1 (configuration not stated),171 to 173 °C
5,O=C1NC(=O)C(Cc2ccc3cc(OCc4ccccc4F)ccc3c2)S1 (configuration not stated),150 to 152 °C
6,CCOC(=O)COc1ccc(C=O)c(O)c1,97 to 99 °C
7,CC1=C(C#N)S(=O)(=O)c2cc(F)cc(F)c2N1,289 to 290 °C
8,O=C(Nc1ccc(C=CCN2C(=O)c3ccccc3C2=O)cc1)c1ccccc1-c1ccc(C(F)(F)F)cc1,190 °C
9,O=C(O)Cc1ccc(F)cc1Sc1ccc([N+](=O)[O-])cc1,160 to 164 °C
10,NNC(=O)C(=O)N(N)C(=O)c1ccccc1,226 °C
11,CCCC(C)(O)C(=O)Nc1cc(Br)[nH]c(=O)c1 (configuration not stated),188 °C
12,CC(=O)SCC1=C(CSC(C)=O)C(=O)C(CSC(C)=O)=C(CSC(C)=O)C1=O,133 to 135 °C
13,CN1Cc2cncn2-c2ccc(F)cc2C1=O,236 °C
14,O=c1ccn(-c2ccc3c(c2)Cc2cc(=O)[nH]nc2-3)cc1,> 300 °C
15,CS(=O)(=O)c1ccc(-c2nn(Cc3ccc(Cl)cc3Cl)c(=O)cc2-c2ccc(F)cc2)cc1,212 °C
16,O=C(O)CCCN(C(=O)c1cccc(C(F)(F)F)c1)c1ccccc1-c1ccccc1,156 to 157 °C
17,COC(=O)C=C(Br)SC#N,139 to 142 °C
18,CC(=O)NCc1c(C)cc(CO)cc1C,194 °C
19,Cc1ccc(-c2nnc(N(CCCCOCC(=O)O)C(C)C)nc2-c2ccc(C)cc2)cc1,119 to 121 °C
20,O=S1(=O)N=C(NOCc2ccccc2)Nc2ccc(Cl)cc21,> 220 °C
21,C=CCN1C(=O)NC(C)CC1OCC (configuration not stated),72 to 76 °C
22,COc1cc(OC)c2c(=O)[nH]c(-c3ccccn3)nc2c1,215 to 217 °C
23,NC1CCOC1c1ncnc2nc[nH]c12 (configuration not stated),128 to 130 °C

# The remaining lines, values ahead:
row,melting point,Compound
1,154 to 157 °C,Cc1ccccc1-c1ccc(C(=O)N2Cc3ccc(C(=O)NCCc4ccc5c(c4)OCO5)n3Cc3ccccc32)cc1C
2,132 to 134 °C,CN1N(c2ccccc2)C(=O)C(F)(F)C1(C)O (configuration not stated)
3,> 240 °C,CC(C)c1cccc(C(C)C)c1NC(=O)Nc1nnn[nH]1
4,226 to 229 °C,O=C(O)/C=C/c1nncn1-c1ccc(F)cc1
5,107 to 109 °C,[N-]=[N+]=C1C(=O)c2ccccc2-c2ccccc21
6,230 to 231 °C,O=C(O)[C@@H]1CCCN1C(=O)c1cc2cc3c(cc2c2cc(O)ccc12)OCO3
7,> 260 °C,CN1CCC(N(C)C(=O)c2ccc3nonc3c2)CC1
8,69 to 71 °C,O=C(O)[C@H](Cc1ccccc1)NC(=O)[C@@H]1CCCN1S(=O)(=O)c1ccc(Cl)cc1
9,217 to 219 °C,O=c1cc(-c2cc[nH]n2)oc2ccc(Cl)cc12
10,138 °C,Cc1cc(-n2cccn2)c2cccc(OCc3c(Cl)ccc(S(=O)(=O)N4CCC(CO)CC4)c3Cl)c2n1
11,204 to 207 °C,C[C@H](NC(=O)C(F)(F)F)C(=O)N1CCC[C@H]1C(=O)Nc1ccccc1 (Tfa-Ala-Pro-NHPh)
12,152 to 155 °C,CCOC(=O)c1ccc(NC(=O)CC(c2ccc(Cl)cc2)c2ccc(Cl)cc2)cc1
13,154 °C,CC(C)CNC(=O)CN=Cc1ccccc1F
14,97 to 98 °C,CC(C)N1CC2CC(CN(C(=O)c3ccc(Cl)cc3)C2)C1
15,148 to 149 °C,COc1ccc2nc(-c3ccc(Cl)cc3)cn2c1
16,97 to 99 °C,CC1CCc2ccc(OCC(O)CNC3CCCCC3)cc2O1 (configuration not stated)
17,56 to 57 °C,CCOC(=O)[C@H](CCc1ccccc1)N[C@@H](C)C(=O)N1C(=O)N(Cc2ccccc2)C[C@H]1C(=O)O
18,152 to 154 °C,CC(C)N(C(=S)NC(=O)c1ccccc1)c1ccc2c(c1)OCO2
19,98 to 100 °C,CCOC(=O)/C(=C/c1ccc(OC)c2c1CC(C)(C)O2)c1ccncc1
